Data from patent publication US20030188344A1 (priority 2000, published 2003).
Entries after “also recorded” stand apart in the source; their conditions may differ.

Assays:
[1] = test system: vir gene expression in hypersensitive mutants (AB140, AB147); test: vir induction assay, β-galactosidase reporter, phenol hypersensitive mutants; format: cell-based, A. tumefaciens; conditions: for vir inducing activity / hypersensitivity in mutants: hypersensitive mutants, e.g. AB140, versus wild-type
Description: (§1) vir Induction Assay. A. tumefaciens strains were grown overnight at 27° C. to an optical density of about 0.3-0.6 at 600 nm (OD600) in LB medium supplemented win appropriate antibiotics. Cells were then pelleted by centrifugation and resuspended to an OD600 of 0 1 per ml in sterilized induction medium (ABIM. pH 5.5) supplemented with either 1% glucose or 1% glycerol with or without 0.1% arabinose (w/v). The verious phenolic compounds tested were dissolved in a minimal amount of DMSO in water as mM stocks, and diluted with ABIM to the desired concentration (final DMSO concentration was no greater than 0.1%). The bacteria were incubated with at 28° C. for 8-16 hours and subsequently assayed for β-galactosidase activity by the method of Miller, 1972. ED50 values for the inducers evaluated were estimated from such dose response plots. Each assay value reported is the mean of three replicates; error bar indicates one standard deviation from the mean. Data are representative of three similar independent experiments.
To ensure that the mutants hypersensitive to AS were a result of a change in the vir gene induction pathway rather than a mutation in the reporter plasmid pAC2, other methods to analyze vir gene induction and the virulence response were investigated. First, all nine mutants were transformed with pSW209 carrying a virB::lacZ reporter construct. The β-galactosidase activities of all strains were hypersensitive in an AS dose-response study. The observed changes are not due to some artifact of the reporter plasmids as the expression of VirB10, one of the proteins of the virB operon on its Ti plasmid, in cells of AB140 was detectable after induction with 0.3 μM AS. Wild-type cells required 1 μM AS to produce detectable VirB10. Thus, the mutants are hypersensitive to AS when assaying either the virB^P/nptII reporter, the virB::lacZ reporter, or directly assaying expression of VirB10 from the native viral promoter on the Ti plasmid.

[2] = test system: vir gene expression in wild-type strain A348; test: vir induction assay, β-galactosidase reporter, wild-type strain; format: cell-based, A. tumefaciens; conditions: wild-type A348/pSW209
Description: as §1

vir gene expression = vir gene expression inhibition, β-galactosidase (lacZ under vir promoter); format: cell-based, A. tumefaciens
Description: Vir Induction Assay. A. tumefaciens strains were grown overnight at 27° C. to an OD of 0.3-0.6 in LB medium supplemented with appropriate antibiotics. Cells were then pelleted by centrifugation and resuspended to an OD of 0.1 per ml in sterilized induction medium (ABIM, pH 5.5) supplemented with either 1% glucose or 1% glycerol. The various inducer and Inhibitor compounds tested were dissolved in a minimal amount of DMSO in water as mM stocks, and diluted with ABIM to the desired concentration (final DMSO concentration was no greater than 0.1%). The bacteria were incubated with at 28° C. for 8-16 hr and subsequently assayed for β-galactosidase activity by the method of Miller (1986). IC50 values for the Inhibitors evaluated were estimated from such dose response plots. Each assay value reported is the mean of three replicates; error bar indicates one standard deviation from the mean. Data are representative of three similar independent studies.
The capacity of 1 to inhibit vir gene expression was tested by monitoring β-galactosidase activity in an A. tumefaciens strain carrying wild-type vir induction genes and a lacZ gene under the control of a vir promoter (Hess et al., 1991). […] A more precise test for specificity was available via the utilization of a plasmid containing a virA gene, the putative AS receptor, which contitutively expressed the vir genes in the absence of AS. […] Therefore, the inhibition by 1 occurs upstrean, of VirA activation.

[3] = test system: VirA expression by native PvirA; conditions: with AS induction; cited from earlier work
[4] = test system: A. tumefaciens strain A348/pAC2 and AB140/pAC2; test: kanamycin resistant growth with pAC2 (virB promoter/nptII); format: cell-based; conditions: for survival on induction plates plus kanamycin: A348/pAC2, 40 μg/ml kanamycin; for kanamycin resistant growth of AB140 compared with wild-type (inducer sensitivity): liquid medium, AB140/pAC2 vs A348/pAC2 (FIG. 9)
Description: Mutant Selection. […] Phenolic hypersensitive mutants were selected as follows. Individual colonies of A348/pAC2 were grown overnight in LB broth plus spectinomycin, and the progeny from each colony kept separate to ensure that each mutation was an individual event, not part of a clonal population. The bacteria were subsequently washed in ABIM medium, resuspended to an OD600 of approximately 0.1 and induced overnight in ABIM media plus 100 μM AS. The next day the cells had grown to an approximate OD600 of 1.0 and 2×10^5 to 2×10^6 bacteria were plated onto plates confining ABIM medium containing 10 μM AS and 40 μg/ml kanamycin. Colonies that grew on this selection medium were subsequently assayed for growth on plates containing kanamycin but no phenolic. Colonies that grew under these conditions are constitutive for kanamycin resistance and were not characterized further, while colonies that couldn't survive in this screen were characterized further.
The kanamycin resistance test of selected colonies in response to different doses of phenol was done in the following manner: after one night of induction in ABIM over a range of inducer concentrations, as described above, the bacteria were washed and subcultured into ABIM at a starting OD600 of approximately 0.1. The ABIM included phenolics at a range of concentrations between 0.1-1000 μM. At each concentration of inducer three cultures have kanamycin at a concentration of 20 μg/mL, while one culture has no kanamycin. After overnight culture the OD600 is determined and kanamycin resistant growth as a percentage of control is determined using the following calculation: [formula]

[5] = test system: leaf explants of Nicotiana tabacum cv Havana 425; test: tobacco leaf tumor (virulence) assay
Description: Virulence Assays The capacity of various strains of A. tumefaciens to induce tumors on leaf explants of Nicotiana tabacum cv Havana 425 was tested as described previously. Banta et al., 1994.
In this assay, bacteria and leaf explants are co-cultivated for two days at varying levels of AS and then transferred to antibiotic containing medium that stops bacterial growth but allows plant tumor growth. Banta et al., 1994. In the case of wild-type strain A348, some tumor formation is observed on the leaf explants co-cultivated in the absence of AS in the co-cultivation, as expected because of xenognostic phenols released from the wounded cells (FIG. 10). […] Importantly, the maximum number of tumors formed by both the wild-type strain and AB140 was approximately the same, consistent with the observation that AB140's hypersensitivity is not a result of simple overexpression of the vir genes.

VirB10 expression = test: VirB10 immunoblot; format: cell-based, A. tumefaciens
Description: Immunoblot. Cultures of different strains were induced overnight in ABIM containing 1% glycerol and 0.1% arabinose and varying phenolic concentrations. Samples from each culture, containing an equivalent OD600, were denatured by boiling in sample buffer for 3-10 minutes, and 10 μL from each sample was loaded onto 10% acrylamide gels and separated via SDSpolyacrylamide gel electrophoresis (PAGE). Proteins were transferred from the acrylamide gel to nitrocellulose purchased from Schleicher and Schell (Keene, N. H.) by electrotransfer. VirB 10 expression was examined using immunoblot procedures and antibodies described in Beaupre et al., 1997.

physchem = format: physicochemical; conditions: buffer
Description: Curiously, 1 appears the most hydrolytically labile of this class of structures, with a measured t1/2<4 hr at pH 5.5, and […] at pH 7. […] Moreover, from estimates of the surface area per seedling, the concentration of 1 around the radicle of one-week-old maize seedlings should be between […] and 10 mM, depending on whether a 10 μ or a 100 μ volume element is used to define the surface hydration. […] This inhibitory zone readily explains the observed difficulty transforming this organ with the bacterium.

occ regulon = occ regulon induction (specificity control); format: cell-based, A. tumefaciens; conditions: same plasmid; data not shown

Structure (SMILES): COc1cc([C@@H]2C[C@H]2CO)ccc1O (relative stereo) [(+)-trans-CP, trans-[3-(4-Hydroxy-3-methoxy-phenyl)-cyclopropyl]methanol]
- vir inducing activity / hypersensitivity in mutants [1]: all the inducing activity of the racemate
- vir inducing activity (virB::lacZ β-galactosidase) [2]: virtually all the activity of the trans racemate; also recorded: active

Structure (SMILES): COc1ccc2[nH]c(=O)oc2c1 [6-methoxy-2H-benzoxazolin-2(3H)-one]
- activity of decomposition product (vir gene expression; under the assay conditions): inactive

Structure (SMILES): COC(=O)/C=C/c1cc(OC)c2c(c1)C(C(=O)OC)C(c1ccc(O)c(OC)c1)O2 [(2R,3R)-(−)-trans-DDF, trans-dehydroferulate dimethylester, reference compound]
- vir inducing activity (virB::lacZ β-galactosidase) [2]: all the inducing activity of the racemic mixture
- vir inducing activity (virB::lacZ β-galactosidase) ([2]; listed as (−)-trans-DDF): active

Structure (SMILES): COc1cc(C(C)=O)cc(OC)c1O [AS, Acetosyringone]
- induction of VirA expression by native PvirA [3]: ~8 fold
- survival on induction plates plus kanamycin ([4]; 30 μM AS): killed
- survival on induction plates plus kanamycin ([4]; 100 μM AS): survive
- kanamycin resistant growth of AB140 compared with wild-type (inducer sensitivity) [4]: one-half log lower concentration
- AS concentration for maximal capacity to induce tumors, relative to wild-type ([5]; hypersensitive mutant AB140 (FIG. 10)): log order lower concentration
- number of tumors formed per infected leaf explant ([5]; wild-type strain A348, increasing phenol in co-cultivation medium (FIG. 10)): significantly increased
- sensitivity to AS compared with wild-type strain A348 ([1]; AB140, 0.1% arabinose present in induction medium): increased
- AS concentration for response compared with wild-type ([1]; AB147 class, absence of arabinose): half-log lower concentration
- vir inducing activity / hypersensitivity in mutants [1]: hypersensitive
- AS concentration giving detectable VirB10 (VirB10 expression; cells of AB140): 0.3 µM
- AS concentration required to produce detectable VirB10 (VirB10 expression; wild-type cells): 1 µM

Structure (SMILES): COc1cc(C(C)=O)ccc1O [AV, acetovallinone]
- kanamycin resistant growth of AB140 compared with wild-type (inducer sensitivity) [4]: not hypersensitive

Structure (SMILES): COc1cc2c(c(OC)c1O)CCC2=O [D-indanone, 5-hydroxy-4,6-dimethoxyindanone]
- vir inducing activity / hypersensitivity in mutants [1]: hypersensitive
- vir inducing activity (virB::lacZ β-galactosidase) [2]: little changed

Structure (SMILES): COc1c(O)ccc2c1CCC2=O [E-indanone, 5-hydroxy-4-methoxy-1-indanone]
- vir inducing activity / hypersensitivity in mutants [1]: hypersensitive
- vir inducing activity (virB::lacZ β-galactosidase) [2]: equivalent activity

Structure (SMILES): COc1cc2c(cc1O)CCC2=O [Z-indanone, 5-hydroxy-6-methoxy-1-indanone]
- vir inducing activity (virB::lacZ β-galactosidase) [2]: equivalent activity

Structure (SMILES): COc1cc(C2CC2CO)ccc1O (stereo not drawn) [cis-CP]
- vir inducing activity (virB::lacZ β-galactosidase) [2]: equivalent activity

Structure (SMILES): COc1ccc2c(c1)OC(O)C(=O)N2OC (centres unmarked) [compound 1]
- actual IC50 (vir gene expression; based on decomposition rates during the 8 hr assay period): nanomolar range
- inhibition of vir gene expression (β-galactosidase activity) (vir gene expression; expression induced by 100 uM acetosyringone, wild-type vir induction genes): strongly inhibits
- effect on constitutively activated VirA strain (FIG. 2) (vir gene expression; virA G665D expressing vir genes in the absence of AS): functions independently
- half-life (physchem; pH 5.5): < 240 min
- half-life (physchem; pH 7): ~10 min
- effect on induction of the occ regulon (occ regulon): unaffected
